Legend:
[1] = High throughput screening of water-soluble solid excipients for glucagon dissolution; assay type: physicochemical; conditions: 37° C.; for Fold change vs. PBS Avg.: 30-minute incubation in pH 7.4 PBS containing 1 mg/mL excipient; for Glucagon concentration Avg.: solubilized glucagon after 30-minute incubation of lyophilized glucagon in pH 7.4 PBS containing 1 mg/mL excipient
[2] = Dissolution kinetics of solid glucagon tablets; assay type: physicochemical; conditions: pH 7.4 PBS, 37° C.
Excerpt: Many of the top hits in the excipient screening (e.g., benzoic acid and sodium carbonate) promote glucagon dissolution by altering solution pH. Unlike many other successful excipients, the zwitterionic compound MSB can enhance glucagon dissolution in PBS without altering solution pH.
The excipients were cryo-milled and sieved to a particle size of 63-120 μm (230-120 mesh) before being combined with lyophilized glucagon powder. Solid glucagon formulations were manufactured by tablet compaction of the drug-excipient mixture (1 mm diameter die, 400 N compaction force) using an RD10A Natoli Tablet press. Magnesium stearate, a common lubricant used in tableting, was excluded from this process. The solid formulations were stored at 4° C. until use.
The dissolution kinetics of the solid formulations were assessed by incubating the solid glucagon formulations in 2 mL of pH 7.4 PBS, stored at 37° C. on an orbital shaker. At predetermined timepoints, 200 μL of supernatant was removed for HPLC analysis and an equivalent volume of release medium was replaced. The samples were diluted with equal parts of acetonitrile and analyzed using RP-HPLC.

| Compound | Fold change vs. PBS Avg. [1] [fold] | Glucagon concentration Avg. [1] [mg/mL] | dissolution of solid glucagon formulation in neutral pH buffer [2] |
| --- | --- | --- | --- |
| O=S([O-])S(=O)[O-].[Na+].[Na+] [Sodium Dithionite] | 2.25 | 0.49 |  |
| O=C([O-])[C@H](O)[C@@H](O)[C@H](O)[C@H](O)CO.[Na+] [Sodium Gluconate] | 0.69 | 0.15 |  |
| O=C([O-])c1ccccc1O.[Na+] [Sodium Salicylate] | 1.84 | 0.40 |  |
| OC[C@H]1O[C@@](CO)(O[C@H]2O[C@H](CO)[C@@H](O)[C@H](O)[C@H]2O)[C@@H](O)[C@@H]1O [Sucrose] | 1.32 | 0.28 |  |
| O=S(=O)(O)CCNC(CO)(CO)CO [TES] | 1.75 | 0.38 |  |
| O=C(OC[C@H]1O[C@@H](OC(=O)c2cc(O)c(O)c(OC(=O)c3cc(O)c(O)c(O)c3)c2)[C@H](OC(=O)c2cc(O)c(O)c(OC(=O)c3cc(O)c(O)c(O)c3)c2)[C@@H](OC(=O)c2cc(O)c(O)c(OC(=O)c3cc(O)c(O)c(O)c3)c2)[C@@H]1OC(=O)c1cc(O)c(O)c(OC(=O)c2cc(O)c(O)c(O)c2)c1)c1cc(O)c(O)c(OC(=O)c2cc(O)c(O)c(O)c2)c1 [Tannic Acid] | 0.08 | 0.02 |  |
| NCCS(=O)(=O)O [Taurine] | 1.11 | 0.24 |  |
| NC(CO)(CO)CO [Tris base] | 2.50 | 0.54 |  |
| CC(C)[C@H](N)C(=O)O [Valine] | 1.89 | 0.41 |  |
| Betadex Sulfobutyl Ether Sodium | 1.56 | 0.34 |  |
| Bovine serum albumin | 2.86 | 0.62 |  |
| Methyl-B-Cyclodextrin | 1.27 | 0.27 |  |
| Sodium deoxycholate | 1.75 | 0.38 |  |
| glucagon [unformulated glucagon] |  |  | remained largely insoluble |

Reference: patent publication US20250025411A1, “READILY SOLUBLE AND THERMOSTABLE GLUCAGON FORMULATIONS AND DELIVERY FOR MINI-DOSING AND CLOSED -LOOP PROPHYLACTIC TREATMENT OF HYPOGLYCEMIA” (Massachusetts Institute of Technology, priority 2023, published 2025)
